target: T1, GST-PLK1 (Homo sapiens, UniProt P53350); experiment: Biochemical Characterization Assay: GST-PLK1 kinase HTRF assay with GST-p53 substrate; settings: full-length GST-PLK1, GST-p53 and ATP, 37° C. for 35 minutes, HTRF signal
T1 construct: Full-length, active GST-PLK1 is purified from Sf9 insect cells; made in house; host or cells: Sf9 insect cells
Method: Biochemical Characterization Assay
Full-length, active GST-PLK1 is purified from Sf9 insect cells, and full-length GST-p53 is purified from E. coli. Anti-phospho p53 antibody is from Cell Signaling Technology. Europium-conjugated anti-rabbit antibody is from PerkinElmer Life and Analytical Sciences. APC-conjugated anti-GST antibody is from Prozyme.
To assay compounds of the invention, two microliters of test compound (0.6 nM-4 mM) in DMSO or plain DMSO for control wells, 38 microliters of 20 mM HEPES pH 7, 50 mM NaCl, 10 mM MgCl2, 0.5 mM TCEP, 0.1 mM sodium orthovanadate, 0.1 mg/mL BSA, and 0.05% Triton X-100 (Kinase Assay Buffer) are added. […] Six microliters of GST-PLK1 (3 ug/mL) in Kinase Assay Buffer are then added and the solution incubated at 37° C. for 35 minutes. Six microliters of solution containing 43 mM EDTA to stop the reaction and a 1:600 dilution of anti-phospho-p53 antibody in 20 mM HEPES pH 7, 50 mM NaCl, and 0.5 mg/mL BSA (Antibody Binding Buffer) are added and the solution incubated at 37° C. for 30 minutes. […] The HTRF signal is read on an Envision reader from PerkinElmer Life and Analytical Sciences.

T1 sequence (P53350 whole entry): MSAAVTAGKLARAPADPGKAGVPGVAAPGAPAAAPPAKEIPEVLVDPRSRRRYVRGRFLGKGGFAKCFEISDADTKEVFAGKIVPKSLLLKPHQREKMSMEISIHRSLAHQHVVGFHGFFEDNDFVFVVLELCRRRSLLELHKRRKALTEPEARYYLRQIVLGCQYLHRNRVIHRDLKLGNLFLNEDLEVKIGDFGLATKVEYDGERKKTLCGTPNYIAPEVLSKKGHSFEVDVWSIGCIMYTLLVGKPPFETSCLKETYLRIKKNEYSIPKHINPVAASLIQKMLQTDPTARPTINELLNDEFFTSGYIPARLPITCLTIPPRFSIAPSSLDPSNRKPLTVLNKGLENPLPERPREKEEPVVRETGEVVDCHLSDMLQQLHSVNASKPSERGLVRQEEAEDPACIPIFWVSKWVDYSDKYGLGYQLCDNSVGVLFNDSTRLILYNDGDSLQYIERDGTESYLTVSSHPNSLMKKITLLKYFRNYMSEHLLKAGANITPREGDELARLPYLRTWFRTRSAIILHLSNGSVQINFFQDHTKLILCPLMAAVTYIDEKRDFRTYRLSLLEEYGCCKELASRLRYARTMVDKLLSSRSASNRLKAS

`COc1cc(C(=O)NC2CCN(C)CC2)ccc1Nc1ncc2c(n1)N(C1CCCC1C)CCC(=O)N2C` (racemic) [I-57, (rac)-3-Methoxy-4-[5-methyl-9-(2-methyl-cyclopentyl)-6-oxo-6,7,8,9-tetrahydro-5H-pyrimido[4,5-b][1,4]diazepin-2-ylamino]-N-(1-methyl-piperidin-4-yl)-benzamide] and `COc1cc(C(=O)NC2CCN(C)CC2)ccc1Nc1ncc2c(n1)N(C1CCC(C)C1)CCC(=O)N2C` (racemic) [I-58, (rac)-3-Methoxy-4-[5-methyl-9-(3-methyl-cyclopentyl)-6-oxo-6,7,8,9-tetrahydro-5H-pyrimido[4,5-b][1,4]diazepin-2-ylamino]-N-(1-methyl-piperidin-4-yl)-benzamide] cannot be ordered by IC50: under 500 nM for the first, under 500 nM for the second.

`COc1cc(C(=O)NC2CCN(C)CC2)ccc1Nc1ncc2c(n1)N(C1CCCC1)C1CCCC1C(=O)N2C` (racemic) [I-68, (rac)-4-(4-Cyclopentyl-9-methyl-10-oxo-1,2,3,3a,4,9,10,10a-octahydro-4,5,7,9-tetraaza-benzo[f]azulen-6-ylamino)-3-methoxy-N-(1-methyl-piperidin-4-yl)-benzamide] and `COc1cc(C(=O)NC2CCN(C)CC2)ccc1Nc1ncc2c(n1)N(C1CCCC1)CC(C)C(=O)N2C` (racemic) [I-2, (rac)-4-(9-Cyclopentyl-5,7-dimethyl-6-oxo-6,7,8,9-tetrahydro-5H-pyrimido[4,5-b][1,4]diazepin-2-ylamino)-3-methoxy-N-(1-methyl-piperidin-4-yl)-benzamide] cannot be ordered by IC50: under 500 nM for the first, under 500 nM for the second.

`CN1CCC(NC(=O)c2ccc(Nc3ncc4c(n3)N(C3CCCC3)CC3(CC3)C(=O)N4C)cc2)CC1` [I-62, 4-[(9-Cyclopentyl-6,7,8,9-tetrahydro-5-methyl-6-oxospiro[5H-pyrimido[4,5-b][1,4]diazepine-7,1′-cyclopropan]-2-yl)amino]-N-(1-methyl-4-piperidinyl)benzamide] and `COc1cc(C(=O)NC2CCN(C)CC2)ccc1Nc1ncc2c(n1)N(C1CCCC1)CC1(CC1)C(=O)N2C` [I-54, 4-[(9-Cyclopentyl-6,7,8,9-tetrahydro-5-methyl-6-oxospiro[5H-pyrimido[4,5-b][1,4]diazepine-7,1′-cyclopropan]-2-yl)amino]-3-methoxy-N-(1-methyl-4-piperidinyl)benzamide] cannot be ordered by IC50: under 500 nM for the first, under 500 nM for the second.

First: COc1cc(C(N)=O)ccc1Nc1ncc2c(n1)N(C1CCC1)CCC(=O)N2C [I-34, 4-(9-Cyclobutyl-5-methyl-6-oxo-6,7,8,9-tetrahydro-5H-pyrimido[4,5-b][1,4]diazepin-2-ylamino)-3-methoxy-benzamide]
Second: COc1cc(C(=O)N(C)C)ccc1Nc1ncc2c(n1)N(C1CCC1)CCC(=O)N2C [I-35, 4-(9-Cyclobutyl-5-methyl-6-oxo-6,7,8,9-tetrahydro-5H-pyrimido[4,5-b][1,4]diazepin-2-ylamino)-3-methoxy-N,N-dimethyl-benzamide]
The IC50 of the first is lower: 500 to 5000 nM for the first, over 5000 nM for the second. The first is the more potent here.

`COCCCNC(=O)c1cccc(Nc2ncc3c(n2)N(C2CCCC2)CC(C)C(=O)N3C)c1` (racemic) [I-90, (rac)-3-(9-Cyclopentyl-5,7-dimethyl-6-oxo-6,7,8,9-tetrahydro-5H-pyrimido[4,5-b][1,4]diazepin-2-ylamino)-N-(3-methoxy-propyl)-benzamide] and `CC1CN(C2CCCC2)c2nc(Nc3cccc(C(=O)NCCCN(C)C)c3)ncc2N(C)C1=O` (racemic) [I-70, (rac)-3-(9-Cyclopentyl-5,7-dimethyl-6-oxo-6,7,8,9-tetrahydro-5H-pyrimido[4,5-b][1,4]diazepin-2-ylamino)-N-(3-dimethylamino-propyl)-benzamide] fall in the same range of IC50: 500 to 5000 nM for the first, 500 to 5000 nM for the second.

`COc1cc(C(=O)NN)ccc1Nc1ncc2c(n1)N(C1CCCC1)CC(C)C(=O)N2C` (racemic) [I-79, (rac)-4-(9-Cyclopentyl-5,7-dimethyl-6-oxo-6,7,8,9-tetrahydro-5H-pyrimido[4,5-b][1,4]diazepin-2-ylamino)-3-methoxy-benzoic acid hydrazide] and `COc1cc(C(=O)NC2CCN(C)CC2)ccc1Nc1ncc2c(n1)N(C1CCCC1)C[C@@H](C)C(=O)N2C` [I-2a, 7R-4-(9-Cyclopentyl-5,7-dimethyl-6-oxo-6,7,8,9-tetrahydro-5H-pyrimido[4,5-b][1,4]diazepin-2-ylamino)-3-methoxy-N-(1-methyl-piperidin-4-yl)-benzamide] cannot be ordered by IC50: under 500 nM for the first, under 500 nM for the second.

`C=CCN1CC(C)C(=O)N(C)c2cnc(Nc3ccc(C(=O)NC4CCN(C)CC4)cc3OC)nc21` (racemic) [I-65, (rac)-4-(9-Allyl-5,7-dimethyl-6-oxo-6,7,8,9-tetrahydro-5H-pyrimido[4,5-b][1,4]diazepin-2-ylamino)-3-methoxy-N-(1-methyl-piperidin-4-yl)-benzamide] and `CCCCN1CCC(=O)N(C)c2cnc(Nc3ccc(C(=O)NC4CCN(C)CC4)cc3OC)nc21` [I-44, 4-(9-Butyl-5-methyl-6-oxo-6,7,8,9-tetrahydro-5H-pyrimido[4,5-b][1,4]diazepin-2-ylamino)-3-methoxy-N-(1-methyl-piperidin-4-yl)-benzamide] cannot be ordered by IC50: under 500 nM for the first, under 500 nM for the second.

`COc1ccccc1Nc1ncc2c(n1)N(C1CCC1)CCC(=O)N2C` [I-25, 9-Cyclobutyl-2-(2-methoxy-phenylamino)-5-methyl-5,7,8,9-tetrahydro-pyrimido[4,5-b][1,4]diazepin-6-one] and `COc1cc(C(=O)Nc2ccccc2)ccc1Nc1ncc2c(n1)N(C1CCCCC1)CCC(=O)N2` [I-28, 4-(9-Cyclohexyl-6-oxo-6,7,8,9-tetrahydro-5H-pyrimido[4,5-b][1,4]diazepin-2-ylamino)-3-methoxy-N-phenyl-benzamide] cannot be ordered by IC50: over 5000 nM for the first, over 5000 nM for the second.

First: CCC1CN(C2CCCC2)c2nc(Nc3ccc(C(=O)NC4CCN(C)CC4)cc3OC)ncc2N(C)C1=O (racemic) [I-13, (rac)-4-(9-Cyclopentyl-7-ethyl-5-methyl-6-oxo-6,7,8,9-tetrahydro-5H-pyrimido[4,5-b][1,4]diazepin-2-ylamino)-3-methoxy-N-(1-methyl-piperidin-4-yl)-benzamide]
Second: COc1cc(C(=O)NC2CCN(C)CC2)ccc1Nc1ncc2c(n1)N(C1CCCC1)CCC(=O)N2 [I-21, 4-(9-Cyclopentyl-6-oxo-6,7,8,9-tetrahydro-5H-pyrimido[4,5-b][1,4]diazepin-2-ylamino)-3-methoxy-N-(1-methyl-piperidin-4-yl)-benzamide]
The IC50 of the first is lower: under 500 nM for the first, 500 to 5000 nM for the second. The first is the more potent here.

First: COc1cc(C(=O)NC2CCN(C)CC2)ccc1Nc1ncc2c(n1)N(C1CCCCC1)CCC(=O)N2 [I-29, 4-(9-Cyclohexyl-6-oxo-6,7,8,9-tetrahydro-5H-pyrimido[4,5-b][1,4]diazepin-2-ylamino)-3-methoxy-N-(1-methyl-piperidin-4-yl)-benzamide]
Second: COc1cc(C(=O)NC2CCOCC2)ccc1Nc1ncc2c(n1)N(C1CCCCC1)CCC(=O)N2 [I-33, 4-(9-Cyclohexyl-6-oxo-6,7,8,9-tetrahydro-5H-pyrimido[4,5-b][1,4]diazepin-2-ylamino)-3-methoxy-N-(tetrahydro-pyran-4-yl)-benzamide]
The IC50 of the first is lower: 500 to 5000 nM for the first, over 5000 nM for the second. The first is the more potent here.

First: CC1CN(C2CCCC2)c2nc(Nc3ccc(O)c(NC(=O)c4cccnc4)c3)ncc2N(C)C1=O (racemic) [I-47, (rac)-N-[5-(9-Cyclopentyl-5,7-dimethyl-6-oxo-6,7,8,9-tetrahydro-5H-pyrimido[4,5-b][1,4]diazepin-2-ylamino)-2-hydroxy-phenyl]-nicotinamide]
Second: CC1CN(C2CCCC2)c2nc(Nc3ccc(C(=O)Nc4ccncc4)c(Cl)c3)ncc2N(C)C1=O (racemic) [I-86, (rac)-2-Chloro-4-(9-cyclopentyl-5,7-dimethyl-6-oxo-6,7,8,9-tetrahydro-5H-pyrimido[4,5-b][1,4]diazepin-2-ylamino)-N-pyridin-4-yl-benzamide]
The IC50 of the first is lower: 500 to 5000 nM for the first, over 5000 nM for the second.

`CC1CN(C2CCCC2)c2nc(Nc3cccc(C(=O)NCCN(C)C)c3)ncc2N(C)C1=O` (racemic) [I-93, (rac)-3-(9-Cyclopentyl-5,7-dimethyl-6-oxo-6,7,8,9-tetrahydro-5H-pyrimido[4,5-b][1,4]diazepin-2-ylamino)-N-(2-dimethylamino-ethyl)-benzamide] and `CC1CN(C2CCCC2)c2nc(Nc3cccc(C(=O)NC4CCN(C)CC4)c3)ncc2N(C)C1=O` (racemic) [I-69, (rac)-3-(9-Cyclopentyl-5,7-dimethyl-6-oxo-6,7,8,9-tetrahydro-5H-pyrimido[4,5-b][1,4]diazepin-2-ylamino)-N-(1-methyl-piperidin-4-yl)-benzamide] fall in the same range of IC50: 500 to 5000 nM for the first, 500 to 5000 nM for the second.

Compared with `Cc1cc(C(=O)NC2CCN(C)CC2)ccc1Nc1ncc2c(n1)N(C1CCCC1)CC(C)(C)C(=O)N2C` [I-56, 4-(9-Cyclopentyl-5,7,7-trimethyl-6-oxo-6,7,8,9-tetrahydro-5H-pyrimido[4,5-b][1,4]diazepin-2-ylamino)-3-methyl-N-(1-methyl-piperidin-4-yl)-benzamide], `COc1cc(C(=O)N2CCOCC2)ccc1Nc1ncc2c(n1)N(C1CCCCC1)CCC(=O)N2` [I-31, 9-Cyclohexyl-2-[2-methoxy-4-(morpholine-4-carbonyl)-phenylamino]-5,7,8,9-tetrahydro-pyrimido[4,5-b][1,4]diazepin-6-one] is higher in IC50: under 500 nM for the first, over 5000 nM for the second. The first is the more potent here.
